Measurements as given in patent US20170290814A1, “METHODS OF TREATMENT OF CHOLESTASIS AND FIBROSIS” (GENFIT, priority 2016, published 2017).

System: TGFβ1-induced expression of α-SMA protein in human HSC
Test: α-SMA ELISA in TGFβ1-activated human hepatic stellate cells
Assay type: cell-based
Conditions: [Cpd] = 3 μM, 1 h preincubation, TGFβ1 1 ng/ml, 48 h
Description: Serum-deprived HSC were preincubated for 1 hour with RM-5061 before the activation with the profibrogenic cytokine TGFβ1 (1 ng/ml). After 48 hours of incubation, the α-SMA content was measured by ELISA. The obtained values were transformed into percentage inhibition over TGFβ1 control. Data are presented as mean (quadruplicates)±standard error of the mean (SEM). Statistical analyses were performed by one-way ANOVA followed by Bonferroni post-hoc tests, using Sigma Plot 11.0 software. [*: p<0.05; **: p<0.01; ***: p<0.001 (comparison versus TGFβ1 1 ng/mL group)]. The curve fitting and the calculation of half maximal inhibitory concentration (IC50) were performed with XLFit software 5.3.1.3.
Serum-deprived HSC were preincubated for 1 hour with Cpd.5 before the activation with the profibrogenic cytokine TGFβ1 (1 ng/ml). After 48 hours of incubation, the expression of α-SMA was measured by ELISA. The obtained values were transformed into percentage inhibition over TGFβ1 control. Data are presented as mean (triplicates)±standard deviation (SD). Statistical analyses were performed by one-way ANOVA followed by Bonferroni post-hoc tests, using Sigma Plot 11.0 software. [*: p<0.05; **: p<0.01; ***: p<0.001 (comparison versus TGFμ1 1 ng/mL group)]. The curve fitting and the calculation of half maximal inhibitory concentration (IC50) were performed with XLFit software 5.3.1.3.
The human primary hepatic stellate cells (hHSC) (Innoprot) were cultured in STeCM medium (ScienCell cat #5301) that was supplemented with 2% fetal bovine serum (FBS, ScienCell cat #0010), 1% penicillin/streptomycin (ScienCell cat #0503) and stellate cell growth supplement (SteCGS; ScienCell cat #5352). Cell culture flasks were coated with Poly-L Lysine (Sigma cat #P4707) for a better adherence.
The human primary hepatic stellate cells (hHSC) (Innoprot) were cultured under standard conditions, as described above. The cells were subsequently plated at a density of 2×10^4cells/well or 6,5×10^3 cells/well into 96-well or 384-well plates respectively. The next day, cell-culture medium was removed, and cells were washed with PBS (Invitrogen cat #14190). Then, hHSC were deprived for 24 hours in serum-free and SteCGS-free medium. For the treatments with compounds of formula (I), the serum-deprived hHSC were preincubated for 1 hour with the compounds followed by addition of the profibrogenic stimuli TGFβ1 (PeproTech cat #100-21, 1 ng/mL) in serum-free and SteCGS-free medium for an additional 48 hour period. At the end of treatment, the cell culture supernatants of treated-HSC were transferred into a new plate before storage at −20° C.The cells were washed with PBS (Invitrogen, cat #14190) before the addition of lysis buffer (CelLytic™ MT reagent; Sigma #C3228). Plates were then incubated for 30 min on ice using a plate shaker, before storage at −20° C.
The level of α-SMA was measured using a Sandwich ELISA. Briefly, the wells of an ELISA plate were first coated with the capture antibody (mouse monoclonal anti-ACTA2, Abnova) at 4° C. overnight. After 3 washes in PBS +0.2% Tween 20, a blocking solution consisting of PBS +0.2% BSA was added for one hour followed by another washing cycle. The cell lysates were transferred into the wells for binding to the capture antibody for a period of 2 h at room temperature. After the washing procedure, the detection antibody (biotinylated mouse monoclonal anti-ACTA2, Abnova) was added for 2 hours at room temperature followed by 3 washes. For the detection, an HRP-conjugated Streptavidin (R&D Systems cat #DY998) was first applied for 30 min at room temperature. After washing, the HRP substrate TMB (;BD, #555214) was added and incubated for 7 min at room temperature in the dark. Upon oxidation, TMB forms a water-soluble blue reaction product that becomes yellow with addition of sulfuric acid (solution stop), enabling accurate measurement of the intensity at 450 nm using a spectrophotometer. […]

Row | Compound | % I over TGFβ (α-SMA) [%]
1 | O=C(O)c1ccccc1-c1ccccc1C(=O)Nc1nc2ccccc2s1 [Cpd1, 2′-(benzo[d]thiazol-2-ylcarbamoyl)-[1,1′-biphenyl]-2-carboxylic acid] | 40
2 | O=C(Nc1nc(-c2ccc3ccccc3c2)cs1)c1cc([N+](=O)[O-])ccc1Cl [Cpd4, 2-chloro-N-[4-(2-naphthyl)-1,3-thiazol-2-yl]-5-nitrobenzamide] | 53
3 | COc1ccccc1C(=O)Nc1nc(-c2cccs2)c(NC(=O)c2ccccc2)s1 [Cpd2, N-(5-benzamido-4-(thiophen-2-yl)-1,3-thiazol-2-yl)-2-methoxybenzamide] | 43
4 | Cc1sc(NC(=O)c2c(F)cccc2F)nc1-c1ccccc1 [Cpd3, 2,6-difluoro-N-(5-methyl-4-phenyl-1,3-thiazol-2-yl)benzamide] | 48
